Source: US20240425523A1, “Compounds for the Degradation of EGFR Kinase” (Beigene Switzerland GMBH, priority 2023, published 2024)

Assays:
Assay type in all cases: cell-based
[1] = molecular target: T1, EGFR L858R (BaF3-L858R cells) (Homo sapiens, UniProt P00533, L858R); assay: Cell degradation of EGFR, HTRF assay, BaF3-L858R cells; conditions: 16 h treatment; for DC50: EGFR degradation; for Dmax: maximum percentage of degradation
T1 construct: host or cells: BaF3
Method in brief: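 EGFR L858R levels measured by HTRF antibody pair in lysed BaF3-L858R cells after 16 h compound exposure (8-point 5-fold series from 10 uM final, 37° C). Degradation is relative to DMSO-only cells; DC50 fitted with Hill equation, Dmax taken as the largest percent loss.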

[2] = molecular target: T2, EGFR-L858R/C797S (H1975-clone #8 cells) (Homo sapiens, UniProt P00533, C797S/L858R); assay: Cell degradation of EGFR, HTRF assay, H1975-clone#8 (L858R/C797S) cells; conditions: 16 h treatment; for DC50: EGFR degradation; for Dmax: maximum percentage of degradation
T2 construct: expressed in transfected cells; host or cells: H1975 (endogenous EGFR knocked out, clone #8)

[3] = molecular target: T3, p-EGFR L858R (BaF3-L858R cells) (Homo sapiens, UniProt P00533, L858R); assay: Cell p-EGFR inhibition assay, HTRF, BaF3-L858R cells; conditions: 16 h treatment; for Imax (%): maximum percentage of pEGFR inhibition; for IC50: pEGFR inhibition
T3 construct: host or cells: BaF3
Method in brief: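 BaF3-L858R cells treated 16 h at 37 °C, 5% CO2 with compound from 10 uM top, 5-fold dilutions, 8 doses, in 0.1% DMSO medium. Lysates read overnight by HTRF p-EGFR antibodies; IC50 fitted to four-parameter curve against DMSO high control.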

[4] = molecular target: p-EGFR Del19/C797S (H1975-clone #23 cells) (Homo sapiens, UniProt P00533); assay: Cell p-EGFR inhibition assay, HTRF, H1975-clone#23 (DEL19/C797S) cells; conditions: 16 h treatment; for Imax (%): maximum percentage of pEGFR inhibition; for IC50: pEGFR inhibition
Method in brief: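 Phospho-EGFR read by overnight HTRF on lysates, normalized to DMSO-treated high control; IC50, Hill slope and Imax fitted. Compounds were applied for 16 h (10 uM top, 5-fold steps, 8 doses) to an H1975 single clone carrying only exogenous Del19/C797S EGFR after sgRNA knockout of endogenous copies.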

DC50 [1]	Dmax [1]	DC50 [2]	Dmax [2]	Imax (%) [3]	IC50 [3]	Imax (%) [4]	IC50 [4]	SMILES
6.69 nM	82.5%	2.45 nM	83.3%	97.6%	16 nM	99.8%	0.8 nM	COCC1(N2CCN(c3ccc4c(c3)N3CC5CC[C@H](COc6c(cnn6C)-c6cc(cc(C)n6)C(=O)/N=C/3N4)C5)CC2)CCN(c2ccc(C3CCC(=O)NC3=O)nc2C)CC1 (stereo partly shown) [Example 106, 3-(5-(4-(4-((7^1R,7^3S,E)-1^1,2^6-dimethyl-3-oxo-5^2,5^3-dihydro-1^1H,5^1H-9-oxa-4-aza-5(2,1)-benzo[d]imidazola-2(2,4)-pyridina-1(4,5)-pyrazola-7(1,3)-cyclopentanacyclononaphane-5^6-yl)piperazin-1-yl)-4-(methoxymethyl)piperidin-1-yl)-6-methylpyridin-2-yl)piperidine-2,6-dione]
3.32 nM	87.3%	0.75 nM	77%	95.9%	7.7 nM	100.3%	0.6 nM	COC[C@@H]1CN(c2ccc3c(c2)N2CC4CC[C@H](COc5c(cnn5C)-c5cc(cc(C)n5)C(=O)/N=C/2N3)C4)CCN1C1CN(C2CCN(c3cc(F)c([C@H]4CCC(=O)NC4=O)c(F)c3)CC2)C1 [Example 108, (R)-3-(4-(4-(3-((S)-4-((7^1R,7^3S,E)-1^1,2^6-dimethyl-3-oxo-5^2,5^3-dihydro-1^1H,5^1H-9-oxa-4-aza-5(2,1)-benzo[d]imidazola-2(2,4)-pyridina-1(4,5)-pyrazola-7(1,3)-cyclopentanacyclononaphane-5^6-yl)-2-(methoxymethyl)piperazin-1-yl)azetidin-1-yl)piperidin-1-yl)-2,6-difluorophenyl)piperidine-2,6-dione]
3.18 nM	80.7%	1.92 nM	85.7%	97.6%	16.1 nM	100.1%	1 nM	Cc1cc2cc(n1)-c1cnn(C)c1OC[C@H]1CCC(C1)CN1/C(=N/C2=O)Nc2ccc(N3CCN(C4CCN(c5c(F)cc(OC6CCC(=O)NC6=O)cc5F)CC4)CC3)cc21 (stereo partly shown) [Example 111, 3-(4-(4-(4-((7^1R,7^3S,E)-1^1,2^6-dimethyl-3-oxo-5^2,5^3-dihydro-1^1H,5^1H-9-oxa-4-aza-5(2,1)-benzo[d]imidazola-2(2,4)-pyridina-1(4,5)-pyrazola-7(1,3)-cyclopentanacyclononaphane-5^6-1)piperazin-1-yl)piperidin-1-yl)-3,5-difluorophenoxy)piperidine-2,6-dione]
2.2 nM	72.8%	0.41 nM	67.5%	104.4%	15.4 nM	98.9%	0.4 nM	Cc1cc2cc(n1)-c1cnn(C)c1OC[C@H]1CC[C@H](C1)CN1/C(=N/C2=O)Nc2ccc(N3CCC(N4CC(Nc5cc(F)c([C@H]6CCC(=O)NC6=O)c(F)c5)C4)CC3)cc21 [Example 112, (R)-3-(4-((1-(1-((7^1R,7^3S,E)-1^1,2^6-dimethyl-3-oxo-5^2,5^3-dihydro-1^1H,5^1H-9-oxa-4-aza-5(2,1)-benzo[d]imidazola-2(2,4)-pyridina-1(4,5)-pyrazola-7(1,3)-cyclopentanacyclononaphane-5^6-yl)piperidin-4-yl)azetidin-3-yl)amino)-2,6-difluorophenyl)piperidine-2,6-dione]
3.49 nM	70.5%	2.69 nM	77.3%	94.6%	17.1 nM	99%	0.7 nM	Cc1cc2cc(n1)-c1cnn(C)c1OC[C@H]1CCC(C1)CN1/C(=N/C2=O)Nc2ccc(N3CCC(N4CCC(Oc5cc(F)c([C@H]6CCC(=O)NC6=O)c(F)c5)CC4)CC3)cc21 [Example 113, (R)-3-(4-((1′-((7^1R,7^3S,E)-1^1,2^6-dimethyl-3-oxo-5^2,5^3-dihydro-1^1H,5^1H-9-oxa-4-aza-5(2,1)-benzo[d]imidazola-2(2,4)-pyridina-1(4,5)-pyrazola-7(1,3)-cyclopentanacyclononaphane-5^6-yl)-[1,4′-bipiperidin]-4-yl)oxy)-2,6-difluorophenyl)piperidine-2,6-dione]
3.11 nM	75.7%	1.09 nM	82%	98.4%	7.3 nM	100.5%	0.4 nM	Cc1cc2cc(n1)-c1cnn(C)c1OC[C@H]1CCC(C1)CN1/C(=N/C2=O)Nc2ccc(N3CCN(C4(CO)CCN(c5ccc(C6CCC(=O)NC6=O)nc5C)CC4)CC3)cc21 (stereo partly shown) [Example 114, 3-(5-(4-(4-((7^1R,7^3S,E)-1^1,2^6-dimethyl-3-oxo-5^2,5^3-dihydro-1^1H,5^1H-9-oxa-4-aza-5(2,1)-benzo[d]imidazola-2(2,4)-pyridina-1(4,5)-pyrazola-7(1,3)-cyclopentanacyclononaphane-5^6-yl)piperazin-1-yl)-4-(hydroxymethyl)piperidin-1-yl)-6-methylpyridin-2-yl)piperidine-2,6-dione]
1.6 nM	81.9%	2.84 nM	81.1%	97.7%	3.9 nM	99.8%	1.3 nM	Cc1cc2cc(n1)-c1cnn(C)c1OC[C@H]1CCC(C1)CN1/C(=N/C2=O)Nc2ccc(N3CCN([C@@H]4CCN(c5ccc(OC6CCC(=O)NC6=O)cc5F)C[C@@H]4F)CC3)cc21 (stereo partly drawn) [Example 115, 3-(4-((3S,4R)-4-(4-((7^1R,7^3S,E)-1^1,2^6-dimethyl-3-oxo-5^2,5^3-dihydro-1^1H,5^1H-9-oxa-4-aza-5(2,1)-benzo[d]imidazola-2(2,4)-pyridina-1(4,5)-pyrazola-7(1,3)-cyclopentanacyclononaphane-5^6-yl)piperazin-1-yl)-3-fluoropiperidin-1-yl)-3-fluorophenoxy)piperidine-2,6-dione]
1.11 nM	78%	0.92 nM	80.6%	97.1%	14.9 nM	100%	0.6 nM	Cc1cc2cc(n1)-c1cnn(C)c1OC[C@H]1CCC(C1)CN1/C(=N/C2=O)Nc2ccc(N3CC4(C3)CN(C3CCN(c5cc(F)c([C@H]6CCC(=O)NC6=O)c(F)c5)CC3)C4)cc21 [Example 117, (R)-3-(4-(4-(6-((7^1R,7^3S,E)-1^1,2^6-dimethyl-3-oxo-5^2,5^3-dihydro-1^1H,5^1H-9-oxa-4-aza-5(2,1)-benzo[d]imidazola-2(2,4)-pyridina-1(4,5)-pyrazola-7(1,3)-cyclopentanacyclononaphane-5^6-yl)-2,6-diazaspiro[3.3]heptan-2-yl)piperidin-1-yl)-2,6-difluorophenyl)piperidine-2,6-dione]
2.64 nM	79%	5.97 nM	73.7%	98.5%	7.3 nM	100.2%	1.3 nM	COC[C@@H]1CN(c2ccc3c(c2)N2CC4CC[C@H](COc5c(cnn5C)-c5cc(cc(C)n5)C(=O)/N=C/2N3)C4)CCN1C1CCN(c2ccc(NC3CCC(=O)NC3=O)cc2C)CC1 (stereo partly drawn) [Example 118, 3-((4-(4-((S)-4-((7^1R,7^3S,E)-1^1,2^6-dimethyl-3-oxo-5^2,5^3-dihydro-1^1H,5^1H-9-oxa-4-aza-5(2,1)-benzo[d]imidazola-2(2,4)-pyridina-1(4,5)-pyrazola-7(1,3)-cyclopentanacyclononaphane-5^6-yl)-2-(methoxymethyl)piperazin-1-yl)piperidin-1-yl)-3-methylphenyl)amino)piperidine-2,6-dione]
2.47 nM	77%	2.3 nM	74.6%	94.3%	18.2 nM	100.8%	0.6 nM	Cc1cc2cc(n1)-c1cnn(C)c1OC[C@H]1CCC(C1)CN1/C(=N/C2=O)Nc2ccc(N3CCN(C4CCN(c5cc(F)c(C6CCC(=O)NC6=O)c(F)c5)CC4)[C@@H](C)C3)cc21 (stereo partly drawn) [Example 119, (R)-3-(4-(4-((S)-4-((7^1R,7^3S,E)-1^1,2^6-dimethyl-3-oxo-5^2,5^3-dihydro-1^1H,5^1H-9-oxa-4-aza-5(2,1)-benzo[d]imidazola-2(2,4)-pyridina-1(4,5)-pyrazola-7(1,3)-cyclopentanacyclononaphane-5^6-yl)-2-methylpiperazin-1-yl)piperidin-1-yl)-2,6-difluorophenyl)piperidine-2,6-dione]
3.14 nM	70.8%	0.55 nM	65.7%	94.2%	15.6 nM	99.1%	1.1 nM	Cc1cc2cc(n1)-c1cnn(C)c1OC[C@H]1CCC(C1)CN1/C(=N/C2=O)Nc2ccc(N3CCC4(CC3)CN(C3CCN(c5cc(F)c([C@H]6CCC(=O)NC6=O)c(F)c5)CC3)C4)cc21 [Example 120, (R)-3-(4-(4-(7-((7^1R,7^3S,E)-1^1,2^6-dimethyl-3-oxo-5^2,5^3-dihydro-1^1H,5^1H-9-oxa-4-aza-5(2,1)-benzo[d]imidazola-2(2,4)-pyridina-1(4,5)-pyrazola-7(1,3)-cyclopentanacyclononaphane-5^6-yl)-2,7-diazaspiro[3.5]nonan-2-yl)piperidin-1-yl)-2,6-difluorophenyl)piperidine-2,6-dione]
